Read-outs that look alike come from different tables or passages of the source.
Assays:
Assay in all cases: In vitro cytotoxicity of camptothecin analogues (CellTiter-Glo)
Format in all cases: cell-based
SKOV-3 (ovarian cancer) = details: Homo sapiens, SK-OV-3, 96 h, read-out: pIC50 SKOV-3 (converted)
Procedure: (§1) Cytotoxicity of the camptothecin analogues was assessed in vitro as follows.
(§2) In vitro potency was assessed on multiple cancer cell lines: SK-BR-3 (breast cancer), SKOV-3 (ovarian cancer), Calu-3 (lung cancer), ZR-75-1 (breast cancer) and MDA-MB-468 (breast cancer). Serial dilutions of camptothecin analogues were prepared in RPMI 1640+10% FBS, and 20 μL of each dilution was added to 384-well plates. Cells cultured in log-phase growth were detached by brief incubation in 0.05% Trypsin and resuspended in respective culturing media at 20,000 cells/mL (with the exception of ZR-75 cells, which were resuspended at 10,000 cells/mL). 50 μL of cell suspension was then added to the plates containing test articles. Cells were incubated with test articles for 4 d at 37° C. (with the exception of ZR-75 cells, which were incubated for 5 d). Growth inhibition was assessed by CellTiter-Glo® (Promega Corporation, Madison, WI) and luminescence was measured on a plate reader. IC50 values were determined by GraphPad Prism (GraphPad Software, San Diego CA).

Calu-3 (lung cancer) = details: Homo sapiens, Calu-3, 96 h, read-out: pIC50 Calu-3 (converted)
Procedure: as §1, §2

SK-BR-3 (breast cancer) = details: Homo sapiens, SK-BR-3, 96 h, read-out: pIC50 SKBR-3 (converted)
Procedure: as §1, §2

ZR-75-1 (breast cancer) = details: Homo sapiens, ZR-75-1, 120 h, read-out: pIC50 ZR-75 (converted)
Procedure: as §1, §2

[1] = tested on: MDA-MB-468 (breast cancer); details: Homo sapiens, MDA-MB-468, 96 h, read-out: pIC50 MDA-MB-468 (converted)
Procedure: as §1, §2

| Compound | IC50 (SKOV-3 (ovarian cancer); 4 d incubation) [nM] | IC50 (Calu-3 (lung cancer); 4 d incubation) [nM] | IC50 (SK-BR-3 (breast cancer); 4 d incubation) [nM] | IC50 (ZR-75-1 (breast cancer); 5 d incubation) [nM] | IC50 ([1]; 4 d incubation) [nM] | IC50 (SKOV-3 (ovarian cancer)) [nM] | IC50 (Calu-3 (lung cancer)) [nM] | IC50 (SK-BR-3 (breast cancer)) [nM] | IC50 (ZR-75-1 (breast cancer)) [nM] | IC50 [1] [nM] |
| --- | --- | --- | --- | --- | --- | --- | --- | --- | --- | --- |
| CC[C@@]1(O)C(=O)OCc2c1cc1n(c2=O)Cc2c-1nc1cc(F)c(C)cc1c2CN1CCOCC1 [Compound 100, (S)-4-ethyl-8-fluoro-4-hydroxy-9-methyl-11-(morpholinomethyl)-1,12-dihydro-14H-pyrano[3′,4′:6,7]indolizino[1,2-b]quinoline-3,14(4H)-dione] | 2.29 | 1.12 | 1.1 | 1.23 | 2.51 | – | – | – | – | – |
| CC[C@@]1(O)C(=O)OCc2c1cc1n(c2=O)Cc2c-1nc1cc(F)c(OC)cc1c2CN1CCOCC1 [Compound 101, (S)-4-ethyl-8-fluoro-4-hydroxy-9-methoxy-11-(morpholinomethyl)-1,12-dihydro-14H-pyrano[3′,4′:6,7]indolizino[1,2-b]quinoline-3,14(4H)-dione] | 1.58 | – | 1.07 | 1.07 | 2.57 | – | – | – | – | – |
| CC[C@@]1(O)C(=O)OCc2c1cc1n(c2=O)Cc2c-1nc1cc(F)c(C)cc1c2CN1CCN(S(=O)(=O)c2ccccc2)CC1 [Compound 102, (S)-4-ethyl-8-fluoro-4-hydroxy-9-methyl-11-((4-(phenylsulfonyl)piperazin-1-yl)methyl)-1,12-dihydro-14H-pyrano[3′,4′:6,7]indolizino[1,2-b]quinoline-3,14(4H)-dione] | 2.14 | – | 0.933 | 0.794 | 2.34 | – | – | – | – | – |
| CC[C@@]1(O)C(=O)OCc2c1cc1n(c2=O)Cc2c-1nc1cc(F)c(OC)cc1c2CN1CCN(S(=O)(=O)c2ccccc2)CC1 [Compound 103, (S)-4-ethyl-8-fluoro-4-hydroxy-9-methoxy-11-((4-(phenylsulfonyl)piperazin-1-yl)methyl)-1,12-dihydro-14H-pyrano[3′,4′:6,7]indolizino[1,2-b]quinoline-3,14(4H)-dione] | 4.37 | 2.34 | 1.7 | 2.4 | 4.68 | – | – | – | – | – |
| CC[C@@]1(O)C(=O)OCc2c1cc1n(c2=O)Cc2c-1nc1cc(F)c(C)cc1c2CN1CCN(S(=O)(=O)c2ccc(N)cc2)CC1 [Compound 104, (S)-11-((4-((4-aminophenyl)sulfonyl)piperazin-1-yl)methyl)-4-ethyl-8-fluoro-4-hydroxy-9-methyl-1,12-dihydro-14H-pyrano[3′,4′:6,7]indolizino[1,2-b]quinoline-3,14(4H)-dione] | 7.76 | 5.25 | 2.69 | 2.57 | 2.63 | – | – | – | – | – |
| CC[C@@]1(O)C(=O)OCc2c1cc1n(c2=O)Cc2c-1nc1cc(F)c(OC)cc1c2CN1CCN(S(=O)(=O)c2ccc(N)cc2)CC1 [Compound 105, (S)-11-((4-((4-aminophenyl)sulfonyl)piperazin-1-yl)methyl)-4-ethyl-8-fluoro-4-hydroxy-9-methoxy-1,12-dihydro-14H-pyrano[3′,4′:6,7]indolizino[1,2-b]quinoline-3,14(4H)-dione] | 10.7 | 4.47 | 3.63 | 3.09 | 2.75 | – | – | – | – | – |
| CC[C@@]1(O)C(=O)OCc2c1cc1n(c2=O)Cc2c-1nc1cc(F)c(C)cc1c2CN1CCN(C)CC1 [Compound 106, (S)-4-ethyl-8-fluoro-4-hydroxy-9-methyl-11-((4-methylpiperazin-1-yl)methyl)-1,12-dihydro-14H-pyrano[3′,4′:6,7]indolizino[1,2-b]quinoline-3,14(4H)-dione] | 7.41 | 4.57 | 3.39 | 3.8 | 9.33 | – | – | – | – | – |
| CC[C@@]1(O)C(=O)OCc2c1cc1n(c2=O)Cc2c-1nc1cc(F)c(C)cc1c2CN1CCN(c2ccc(N)cc2)CC1 [Compound 108, (S)-11-((4-(4-aminophenyl)piperazin-1-yl)methyl)-4-ethyl-8-fluoro-4-hydroxy-9-methyl-1,12-dihydro-14H-pyrano[3′,4′:6,7]indolizino[1,2-b]quinoline-3,14(4H)-dione] | – | – | – | – | – | 55 | 40.7 | 29.5 | 18.6 | 47.9 |
| CC[C@@]1(O)C(=O)OCc2c1cc1n(c2=O)Cc2c-1nc1cc(F)c(OC)cc1c2CN1CCN(c2ccc(N)cc2)CC1 [Compound 109, (S)-11-((4-(4-aminophenyl)piperazin-1-yl)methyl)-4-ethyl-8-fluoro-4-hydroxy-9-methoxy-1,12-dihydro-14H-pyrano[3′,4′:6,7]indolizino[1,2-b]quinoline-3,14(4H)-dione] | 7.08 | – | 5.75 | 5.01 | 8.13 | – | – | – | – | – |
| CC[C@@]1(O)C(=O)OCc2c1cc1n(c2=O)Cc2c-1nc1cc(F)c(C)cc1c2CN1CCCCC1 [Compound 110, (S)-4-ethyl-8-fluoro-4-hydroxy-9-methyl-11-(piperidin-1-ylmethyl)-1,12-dihydro-14H-pyrano[3′,4′:6,7]indolizino[1,2-b]quinoline-3,14(4H)-dione] | 0.933 | 0.813 | 1.32 | 0.851 | 1.55 | – | – | – | – | – |
| CC[C@@]1(O)C(=O)OCc2c1cc1n(c2=O)Cc2c-1nc1cc(F)c(C)cc1c2CN1CCN(C(=O)OC(C)(C)C)CC1 [Compound 111, tert-butyl (S)-4-((4-ethyl-8-fluoro-4-hydroxy-9-methyl-3,14-dioxo-3,4,12,14-tetrahydro-1H-pyrano[3′,4′:6,7]indolizino[1,2-b]quinolin-11-yl)methyl)piperazine-1-carboxylate] | 16.6 | 19.5 | 8.51 | 9.12 | 28.8 | – | – | – | – | – |
| CC[C@@]1(O)C(=O)OCc2c1cc1n(c2=O)Cc2c-1nc1cc(F)c(C)cc1c2CN1CCNCC1 [Compound 112, (S)-4-ethyl-8-fluoro-4-hydroxy-9-methyl-11-(piperazin-1-ylmethyl)-1,12-dihydro-14H-pyrano[3′,4′:6,7]indolizino[1,2-b]quinoline-3,14(4H)-dione] | 20 | 17.4 | 6.61 | 12 | 13.5 | – | – | – | – | – |
| CC[C@@]1(O)C(=O)OCc2c1cc1n(c2=O)Cc2c-1nc1cc(F)c(OC)cc1c2CNS(=O)(=O)c1ccc(N)cc1 [Compound 128, (S)-4-amino-N-((4-ethyl-8-fluoro-4-hydroxy-9-methoxy-3,14-dioxo-3,4,12,14-tetrahydro-1H-pyrano[3′,4′:6,7]indolizino[1,2-b]quinolin-11-yl)methyl)benzenesulfonamide] | – | – | – | – | – | 18.2 | – | 5.25 | 4.27 | 8.32 |
| CC[C@@]1(O)C(=O)OCc2c1cc1n(c2=O)Cc2c-1nc1cc(F)c(C)cc1c2CNS(N)(=O)=O [Compound 131, (S)—N-((4-ethyl-8-fluoro-4-hydroxy-9-methyl-3,14-dioxo-3,4,12,14-tetrahydro-1H-pyrano[3′,4′:6,7]indolizino[1,2-b]quinolin-11-yl)methyl)methanesulfamide] | – | – | – | – | – | – | 9.12 | 1.05 | 0.955 | 9.12 |
| CC[C@@]1(O)C(=O)OCc2c1cc1n(c2=O)Cc2c-1nc1cc(F)c(OC)cc1c2CNC(=O)NCCO [Compound 137, (S)-1-((4-ethyl-8-fluoro-4-hydroxy-9-methoxy-3,14-dioxo-3,4,12,14-tetrahydro-1H-pyrano[3′,4′:6,7]indolizino[1,2-b]quinolin-11-yl)methyl)-3-(2-hydroxyethyl)urea] | – | 63.1 | 17 | 18.6 | 28.2 | – | – | – | – | – |
| CC[C@@]1(O)C(=O)OCc2c1cc1n(c2=O)Cc2c-1nc1cc(F)c(N)cc1c2CN1CCCCC1 [Compound 148, (S)-9-amino-4-ethyl-8-fluoro-4-hydroxy-11-(piperidin-1-ylmethyl)-1,12-dihydro-14H-pyrano[3′,4′:6,7]indolizino[1,2-b]quinoline-3,14(4H)-dione] | – | 0.204 | 0.324 | 0.219 | 0.204 | – | – | – | – | – |
| CC[C@@]1(O)C(=O)OCc2c1cc1n(c2=O)Cc2c-1nc1cc(F)c(N)cc1c2CNS(=O)(=O)CCO [Compound 150, (S)—N-((9-amino-4-ethyl-8-fluoro-4-hydroxy-3,14-dioxo-3,4,12,14-tetrahydro-1H-pyrano[3′,4′:6,7]indolizino[1,2-b]quinolin-11-yl)methyl)-2-hydroxyethane-1-sulfonamide] | 63.1 | – | 7.94 | 6.46 | – | – | – | – | – | – |
